Source: patent publication US7507860B2 (Pfizer Inc., priority 2004, dated 2009)
Numbering of substitutions follows the chain as printed. Read-outs that look alike come from different tables or passages of the source.

Key:
[1] = molecular target: T1, human androgen receptor (hAR) (Homo sapiens, UniProt P10275); test: Competitive binding analysis on baculovirus/Sf9 generated hAR extracts with 3H-DHT tracer; details: hAR extract, 1 nM 3H-DHT, one hour at 4° C, mean of multiple tests
T1 construct: made in house; host or cells: baculovirus/Sf9 insect cells (crude extract)
T1 sequence (P10275 1-920): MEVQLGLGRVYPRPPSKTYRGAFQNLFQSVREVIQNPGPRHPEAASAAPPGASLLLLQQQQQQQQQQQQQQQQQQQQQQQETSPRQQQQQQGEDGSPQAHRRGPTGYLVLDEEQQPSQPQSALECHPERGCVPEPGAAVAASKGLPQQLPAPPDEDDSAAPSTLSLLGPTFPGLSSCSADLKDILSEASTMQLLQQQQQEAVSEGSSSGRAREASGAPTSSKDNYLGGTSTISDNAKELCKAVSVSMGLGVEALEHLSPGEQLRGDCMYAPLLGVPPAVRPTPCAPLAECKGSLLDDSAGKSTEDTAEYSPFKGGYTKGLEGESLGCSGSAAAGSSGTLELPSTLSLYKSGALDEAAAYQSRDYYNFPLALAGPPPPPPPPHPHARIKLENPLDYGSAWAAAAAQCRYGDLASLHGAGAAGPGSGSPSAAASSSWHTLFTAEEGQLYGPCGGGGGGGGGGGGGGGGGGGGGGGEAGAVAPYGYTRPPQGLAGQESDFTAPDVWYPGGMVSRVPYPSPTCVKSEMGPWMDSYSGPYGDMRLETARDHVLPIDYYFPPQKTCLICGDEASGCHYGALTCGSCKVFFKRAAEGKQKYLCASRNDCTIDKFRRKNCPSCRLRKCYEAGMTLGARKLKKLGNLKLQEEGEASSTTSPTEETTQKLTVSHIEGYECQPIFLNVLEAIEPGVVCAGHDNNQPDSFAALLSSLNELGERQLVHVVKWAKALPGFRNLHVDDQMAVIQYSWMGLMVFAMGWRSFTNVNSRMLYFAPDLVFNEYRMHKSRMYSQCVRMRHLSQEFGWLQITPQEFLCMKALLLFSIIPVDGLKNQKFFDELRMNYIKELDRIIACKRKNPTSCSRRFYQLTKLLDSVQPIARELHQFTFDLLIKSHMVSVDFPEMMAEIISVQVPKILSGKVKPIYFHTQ
In short: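 Baculovirus/Sf9-expressed hAR extract incubated with hydroxylapatite, 1 nM 3H-DHT and decreasing compound concentrations for 1 h at 4 °C, then washed three times to remove unbound tracer. Bound 3H-DHT compared with no-competitor maximum; affinity given as concentration inhibiting half of maximum binding, mean of multiple tests.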

androgen receptor = molecular target: T2, androgen receptor (Homo sapiens, UniProt P10275); test: AR antagonist cell assay (MDA-MB453-MMTV clone 54-19 luciferase reporter, 100 pM DHT); assay type: cell-based; details: MDA-MB453-MMTV clone 54-19, inhibition of 100 pM DHT induction, 17 hr; mean of multiple tests; read-out: AR Cell IC50
T2 sequence (P10275 1-920 Q868H): T1 sequence (P10275 1-920) with Q868H
Experimental: The compounds ability to antagonize the effects of androgen on the androgen receptor were determined in a whole cell assay as described immediately below.
Experimental Procedure for AR Antagonist Cell Assay
This cell line is a stable transfected cell line with MDA-MB453 cell background (a human breast tumor cell line expressing androgen receptor). A MMTV minimal promoter containing ARE was first cloned in front of a firefly luciferase reporter gene. Then the cascade was cloned into transfection vector pUV120puro. […] Puromycin resistant stable cell line was selected. Cell Culture Media and Reagents:
Plating medium: DMEM (phenol red free), 10% charcoal treated HyClone serum, 1% L-glutamine
Assay medium: DMEM (phenol red free), 1% charcoal treated HyClone serum, 1% L-glutamine, and 1% penicillin/streptomycin
• 1. Cells are maintained in culture medium, splitting cells when they reach 80-90% confluence • 2. To test compounds, 10,000 cells/well are plated to opaque 96 cell culture plate in 100 ul/well plating medium, culture for overnight at 37° C. in cell culture incubator • 3. […] Add 10 ul/well freshly prepared DHT (final concentration at 100 pM) to each well, incubate at 37° C. for 17 hr (overnight) • 5.
The results are reported as the mean of multiple tests as described below (the numbers of tests are indicated in the footnote). N.D. denotes that the compound was not tested.

SMILES: CCCC(Oc1ccc(C#N)c(C(F)(F)F)c1)C(=O)NCc1ccc(OC)cc1 (centres unmarked) [Example 46, 2-(4-Cyano-3-trifluoromethyl-phenoxy)-pentanoic acid-4-methoxy-benzylamide]
- IC50 ([1]; read-out: AR Binding IC50): 103 nM
- IC50 (androgen receptor): 0.638 µM

SMILES: Cc1ccc(CCNC(=O)C(CC(C)C)Oc2ccc(C#N)c(C(F)(F)F)c2)cc1 (centres unmarked) [Example 47, 2-(4-Cyano-3-trifluoromethyl-phenoxy)-4-methyl-pentanoic acid-(2-p-tolyl-ethyl)amide]
- IC50 ([1]; read-out: AR Binding IC50): 144 nM
- IC50 (androgen receptor): > 1 µM

SMILES: COc1ccccc1CCNC(=O)C(CC(C)C)Oc1ccc(C#N)c(C(F)(F)F)c1 (centres unmarked) [Example 48, 2-(4-Cyano-3-trifluoromethyl-phenoxy)-4-methyl-pentanoic acid-[2-(2-methoxyphenyl)-ethyl]-amide]
- IC50 ([1]; read-out: AR Binding IC50): 123 nM
- IC50 (androgen receptor): > 1 µM

SMILES: Cc1cccc(CCNC(=O)C(CC(C)C)Oc2ccc(C#N)c(C(F)(F)F)c2)c1 (centres unmarked) [Example 49, 2-(4-Cyano-3-trifluoromethyl-phenoxy)-4-methyl-pentanoic acid-(2-m-tolyl-ethyl)amide]
- IC50 ([1]; read-out: AR Binding IC50): 75 nM
- IC50 (androgen receptor): > 1 µM

SMILES: CC(C)CC(Oc1ccc(C#N)c(C(F)(F)F)c1)C(=O)NCC(C)Oc1ccccc1 (centres unmarked) [Example 53, 2-(4-Cyano-3-trifluoromethyl-phenoxy)-4-methyl-pentanoic acid-(2-phenoxypropyl)-amide]
- IC50 ([1]; read-out: AR Binding IC50): 59 nM
- IC50 (androgen receptor): 0.299 µM

SMILES: CC(C)CC(Oc1ccc(C#N)c(C(F)(F)F)c1)C(=O)NC1CCc2ccccc21 (centres unmarked) [Example 54, 2-(4-Cyano-3-trifluoromethyl-phenoxy)-4-methyl-pentanoic acid indan-1-yl-amide]
- IC50 ([1]; read-out: AR Binding IC50): 70 nM
- IC50 (androgen receptor): 0.836 µM

SMILES: CCCC(Oc1ccc(C#N)c(C(F)(F)F)c1)C(=O)NCC(C)Oc1ccccc1 (centres unmarked) [Example 55, 2-(4-Cyano-3-trifluoromethyl-phenoxy)-pentanoic acid-(2-phenoxy-propyl)-amide]
- IC50 ([1]; read-out: AR Binding IC50): 182 nM
- IC50 (androgen receptor): 0.393 µM

SMILES: CCCC(Oc1ccc(C#N)c(C(F)(F)F)c1)C(=O)NCCOc1ccccc1 (centres unmarked) [Example 56, 2-(4-Cyano-3-trifluoromethyl-phenoxy)-pentanoic acid-(2-phenoxy-ethyl)-amide]
- IC50 ([1]; read-out: AR Binding IC50): 157 nM
- IC50 (androgen receptor): 0.79 µM

SMILES: CCCC(Oc1ccc(C#N)c(C(F)(F)F)c1)C(=O)NC1CCc2ccccc21 (centres unmarked) [Example 57, 2-(4-Cyano-3-trifluoromethyl-phenoxy)-pentanoic acid indan-1-yl-amide]
- IC50 ([1]; read-out: AR Binding IC50): 146 nM
- IC50 (androgen receptor): 0.561 µM

SMILES: COc1cccc(CCNC(=O)C(CC(C)C)Oc2ccc(C#N)c(C(F)(F)F)c2)c1 (centres unmarked) [Example 58, 2-(4-Cyano-3-trifluoromethyl-phenoxy)-4-methyl-pentanoic acid-[2-(3-methoxyphenyl)-ethyl]-amide]
- IC50 ([1]; read-out: AR Binding IC50): 64 nM
- IC50 (androgen receptor): > 1 µM

SMILES: CC(C)CC(Oc1ccc(C#N)c(C(F)(F)F)c1)C(=O)NCCc1c[nH]c2ccccc12 (centres unmarked) [Example 59, 2-(4-Cyano-3-trifluoromethyl-phenoxy)-4-methyl-pentanoic acid [2-(1H-indol-3-yl)ethyl]amide]
- IC50 ([1]; read-out: AR Binding IC50): 48 nM
- IC50 (androgen receptor): 0.101 µM

SMILES: CC(C)CC(Oc1ccc(C#N)c(C(F)(F)F)c1)C(=O)NCCc1ccc(O)cc1 (centres unmarked) [Example 61, 2-(4-Cyano-3-trifluoromethyl-phenoxy)-4-methyl-pentanoic acid-[2-(4-hydroxyphenyl)-ethyl]-amide]
- IC50 ([1]; read-out: AR Binding IC50): 86 nM
- IC50 (androgen receptor): 0.341 µM

SMILES: CC(C)CC(Oc1ccc(C#N)c(C(F)(F)F)c1)C(=O)NCCCc1cccnc1 (centres unmarked) [Example 62, 2-(4-Cyano-3-trifluoromethyl-phenoxy)-4-methyl-pentanoic acid-(3-pyridin-3-ylpropyl)-amide]
- IC50 ([1]; read-out: AR Binding IC50): 192 nM
- IC50 (androgen receptor): > 1 µM

SMILES: CCCC(Oc1ccc(C#N)c(C(F)(F)F)c1)C(=O)NCCc1cccc(OC)c1 (centres unmarked) [Example 64, 2-(4-Cyano-3-trifluoromethyl-phenoxy)-pentanoic acid-[2-(3-methoxy-phenyl)ethyl]-amide]
- IC50 ([1]; read-out: AR Binding IC50): 220 nM
- IC50 (androgen receptor): > 1 µM

SMILES: CCCC(Oc1ccc(C#N)c(C(F)(F)F)c1)C(=O)NCCc1c[nH]c2ccccc12 (centres unmarked) [Example 65, 2-(4-Cyano-3-trifluoromethyl-phenoxy)-pentanoic acid [2-(1H-indol-3-yl)ethyl]amide]
- IC50 ([1]; read-out: AR Binding IC50): 33 nM
- IC50 (androgen receptor): 0.064 µM

SMILES: CCCC(Oc1ccc(C#N)c(C(F)(F)F)c1)C(=O)NCCc1ccc(O)cc1 (centres unmarked) [Example 66]
- IC50 ([1]; AR Binding IC50 (nM)): 151 nM
- IC50 (androgen receptor): 0.077 µM

SMILES: CC(C)CC(Oc1ccc(C#N)c(C(F)(F)F)c1)C(=O)NCC(c1ccccc1)N(C)C (centres unmarked) [Example 68, 2-(4-Cyano-3-trifluoromethyl-phenoxy)-4-methyl-pentanoic acid (2-dimethylamino-2-phenyl-ethyl)-amide]
- IC50 ([1]; read-out: AR Binding IC50): 223 nM
- IC50 (androgen receptor): > 1 µM

SMILES: COc1ccc(CNC(=O)C(CC(C)C)Oc2ccc(C#N)c(C(F)(F)F)c2)cn1 (centres unmarked) [Example 72, 2-(4-Cyano-3-trifluoromethyl-phenoxy)-4-methyl-pentanoic acid-(6-methoxy-pyridin-3-yl-methyl)-amide]
- IC50 ([1]; read-out: AR Binding IC50): 82 nM
- IC50 (androgen receptor): 0.251 µM

SMILES: COc1ccc(CNC(=O)C(CC(C)C)Oc2ccc(C#N)c(C(F)(F)F)c2)cc1 (centres unmarked) [Example 73, 2-(4-Cyano-3-trifluoromethyl-phenoxy)-4-methyl-pentanoic acid-4-methoxy-benzylamide]
- IC50 ([1]; read-out: AR Binding IC50): 92 nM
- IC50 (androgen receptor): 0.428 µM

SMILES: CC(C)CC(Oc1ccc(C#N)c(C(F)(F)F)c1)C(=O)NCc1ccc(O)c(O)c1 (centres unmarked) [Example 74, 2-(4-Cyano-3-trifluoromethyl-phenoxy)-4-methyl-pentanoic acid-3,4-dihydroxy-benzylamide]
- IC50 ([1]; read-out: AR Binding IC50): 139 nM
- IC50 (androgen receptor): 0.976 µM

SMILES: Cc1ccc(NC(=O)C(CC(C)C)Oc2ccc(C#N)c(C(F)(F)F)c2)cc1O (centres unmarked) [Example 78, 2-(4-Cyano-3-trifluoromethyl-phenoxy)-4-methyl-pentanoic acid (3-hydroxy-4-methyl-phenyl)-amide]
- IC50 ([1]; read-out: AR Binding IC50): 121 nM
- IC50 (androgen receptor): 0.948 µM

SMILES: CC(C)CC(Oc1ccc(C#N)c(C(F)(F)F)c1)C(=O)N(CCO)C(C)C (centres unmarked) [Example 79, 2-(4-Cyano-3-trifluoromethyl-phenoxy)-4-methyl-pentanoic acid (2-hydroxy-ethyl)isopropyl-amide]
- IC50 ([1]; read-out: AR Binding IC50): 3130 nM
- IC50 (androgen receptor): > 1 µM
